System: LEW kidney allografts
Assay: Rat kidney allograft survival (LEW donors to ACI recipients)
Type: in vivo
[1] = 160 mg/kg NC1153 oral gavage 7 days, thereafter 3×/week up to 90 days

CN(C)CC1CCCCCCCCCC(CN(C)C)C1=O (mixture of isomers) [649641P (NC1153)]
survival times of recipients surviving beyond 90 days [1]: exceeding 200 days | treated recipients surviving beyond treatment of 90 days [1]: 75% | MST (649641P (NC1153) 240 mg/kg/day p.o. for 14 days): > 60 days

Reference: patent US7365096B2, “Methods for selectively inhibiting Janus tyrosine kinase 3 (Jak3)” (Board of Regents, The University of Texas System, priority 2002, dated 2008)
